# Patent US9695155B2, “Herbicidal substituted pyrimidinyloxy benzene compounds” (E. I. DU PONT DE NEMOURS AND COMPANY, priority 2013, dated 2017)
# Columns and labels:
# chickweed = experiment: Test C postemergence; type: in vivo, Stellaria media; settings: Stellaria media, post-emergence
# Summary of the method: (§1)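 Seeds are planted in blended loam soil and sand and treated preemergence, while seedlings in a peat moss/vermiculite medium receive postemergence sprays at 2 to 18 cm height. All plants stay in the greenhouse for 13 to 15 days before visual comparison with controls on a 0–100 scale.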
# soybean = experiment: Test C preemergence; type: in vivo, Glycine max; settings: Glycine max, pre-emergence, preemergence, read-out: Soybean plant response rating
# Summary of the method: as §1
# barnyardgrass [1] = experiment: Test B flooded paddy test; type: in vivo, Echinochloa crus-galli; settings: Echinochloa crus-galli; Flood, 250 g ai/ha; 0 to 100 scale where 0 is no effect and 100 is complete control; read-out: Plant response rating, Barnyardgrass
# Summary of the method: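 Seedlings are raised to two leaves, flooded to a depth of 3 cm and dosed by adding the compound to the floodwater. Water level is kept constant, and plants are scored visually versus controls 13–15 days later (0 = no effect, 100 = complete control).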
# galium = experiment: Test C preemergence; type: in vivo, Galium aparine; settings: Galium, pre-emergence
# Summary of the method: as §1
# barnyardgrass [2] = experiment: Test C preemergence; type: in vivo, Echinochloa crus-galli; settings: Echinochloa crus-galli, pre-emergence
# Summary of the method: as §1
# oilseed rape = experiment: Test C preemergence; type: in vivo, Brassica napus; settings: Brassica napus, pre-emergence, preemergence, read-out: Oilseed Rape plant response rating
# Summary of the method: as §1
# wheat = experiment: Test A preemergence; type: in vivo, Triticum aestivum
# Summary of the method: (§2)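 Injury scores run from 0, no effect, to 100, complete control, judged by eye against untreated plants roughly 10 days after treatment. Chemicals carried a surfactant in a non-phytotoxic solvent and went onto loam–sand soil preemergence or onto one- to two-leaf seedlings postemergence.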
# corn = experiment: Test A postemergence; type: in vivo, Zea mays; settings: Zea mays, post-emergence, 240 h, 0 to 100 scale where 0 is no effect and 100 is complete control
# Summary of the method: as §2
# morningglory = experiment: Test A preemergence; type: in vivo, Ipomoea spp.
# Summary of the method: as §2
# barnyardgrass [3] = experiment: Test A preemergence; type: in vivo, Echinochloa crus-galli; settings: Echinochloa crus-galli, pre-emergence, 240 h, 0 to 100 scale where 0 is no effect and 100 is complete control
# Summary of the method: as §2
# Italian ryegrass = experiment: Test C preemergence; type: in vivo, Lolium multiflorum; settings: Lolium multiflorum, pre-emergence, preemergence, read-out: Ryegrass, Italian plant response rating
# Summary of the method: as §1
# wild oat = experiment: Test C postemergence; type: in vivo, Avena fatua
# Summary of the method: as §1
# velvetleaf = experiment: Test A preemergence; type: in vivo, Abutilon theophrasti
# Summary of the method: as §2
# large (Lg) crabgrass = experiment: Test C preemergence; type: in vivo, Digitaria sanguinalis; settings: Digitaria sanguinalis, pre-emergence
# Summary of the method: as §1
# [4] = 16 g ai/ha, scale 0 to 100 (0 no effect, 100 complete control)
# [5] = 62 g ai/ha, scale 0 (no effect) to 100 (complete control)
# [6] = 125 g ai/ha, scale 0 (no effect) to 100 (complete control)
smiles,measurement,setting,value
"FC(F)(F)c1cn(-c2ccccc2Oc2ncc(Cl)cn2)nn1 [Compound 166, 5-chloro-2-[2-[4-(trifluoromethyl)-1H-1,2,3-triazol-1-yl]phenoxy]pyrimidine]",pest or weed control at 16 g/ha,"chickweed; 16 g ai/ha, postemergence, 0 is no effect, 100 is complete control, read-out: Plant response rating (0 to 100), Chickweed",60%
same,pest or weed control at 31 g/ha,"chickweed; 31 g ai/ha, postemergence, visual rating, scale 0 to 100 (0 no effect, 100 complete control), 13 to 15 days, read-out: Chickweed plant response rating",80%
same,pest or weed control at 125 g/ha,"chickweed; 125 g ai/ha, postemergence, visual rating, scale 0 to 100 (0 no effect, 100 complete control), read-out: Plant response rating, Chickweed",95%
same,pest or weed control at 62 g/ha,"chickweed; Postemergence, 62 g ai/ha, scale 0 to 100 (0 no effect, 100 complete control), read-out: Plant response rating, Chickweed",90%
same,plant injury at 16 g/ha,soybean; [4],60%
same,plant injury at 62 g/ha,soybean; [5],95%
same,plant injury at 125 g/ha,soybean; [6],95%
same,pest or weed control at 250 g/ha,barnyardgrass [1],60%
same,pest or weed control at 16 g/ha,"galium; 16 g ai/ha, preemergence, scale 0 to 100 (0 no effect, 100 complete control), read-out: Galium plant response rating",98%
same,pest or weed control at 62 g/ha,"galium; 62 g ai/ha, preemergence, scale 0 (no effect) to 100 (complete control), read-out: Galium plant response rating",95%
same,pest or weed control at 125 g/ha,"galium; 125 g ai/ha, preemergence, scale 0 (no effect) to 100 (complete control), read-out: Galium plant response rating",95%
same,pest or weed control at 31 g/ha,"galium; Preemergence, 31 g ai/ha, scale 0 to 100, 0 no effect, 100 complete control, read-out: Plant response rating, Galium",100%
same,pest or weed control at 16 g/ha,"barnyardgrass [2]; 16 g ai/ha, preemergence, scale 0 to 100 (0 no effect, 100 complete control), read-out: Barnyardgrass plant response rating",85%
same,pest or weed control at 62 g/ha,"barnyardgrass [2]; 62 g ai/ha, preemergence, scale 0 (no effect) to 100 (complete control), read-out: Barnyardgrass plant response rating",100%
same,pest or weed control at 125 g/ha,"barnyardgrass [2]; 125 g ai/ha, preemergence, scale 0 (no effect) to 100 (complete control), read-out: Barnyardgrass plant response rating",100%
same,pest or weed control at 31 g/ha,"barnyardgrass [2]; Preemergence, 31 g ai/ha, scale 0 to 100, 0 no effect, 100 complete control, read-out: Plant response rating, Barnyardgrass",100%
same,plant injury at 16 g/ha,oilseed rape; [4],90%
same,plant injury at 62 g/ha,oilseed rape; [5],100%
same,plant injury at 125 g/ha,oilseed rape; [6],100%
same,Wheat plant response rating (0 to 100 scale),wheat; 125 g ai/ha,50
same,plant injury at 500 g/ha,"wheat; Triticum aestivum, pre-emergence, 240 h, 500 g ai/ha, 0 to 100 scale where 0 is no effect and 100 is complete control, read-out: Wheat plant response rating",80%
same,plant injury at 125 g/ha,"corn; 125 g ai/ha, read-out: Corn plant response rating",50%
same,"Corn plant response rating (crop injury, 0 = no effect, 100 = complete kill) at 500 g/ha",corn; 500 g ai/ha,60%
same,Morningglory plant response rating (0 to 100 scale),morningglory; 125 g ai/ha,100
same,pest or weed control at 500 g/ha,"morningglory; Ipomoea, pre-emergence, 240 h, 500 g ai/ha, 0 to 100 scale where 0 is no effect and 100 is complete control, read-out: Morningglory plant response rating",100%
same,pest or weed control at 125 g/ha,"barnyardgrass [3]; 125 g ai/ha, read-out: Plant response rating, Barnyardgrass",90%
same,pest or weed control at 500 g/ha,"barnyardgrass [3]; 500 g ai/ha, read-out: Barnyardgrass plant response rating",100%
same,pest or weed control at 16 g/ha,Italian ryegrass; [4],5%
same,pest or weed control at 62 g/ha,Italian ryegrass; [5],90%
same,pest or weed control at 125 g/ha,Italian ryegrass; [6],90%
same,"Oat, Wild plant response rating","wild oat; 31 g ai/ha, postemergence, visual rating, scale 0 to 100 (0 no effect, 100 complete control), 13 to 15 days",10
same,pest or weed control at 16 g/ha,"wild oat; Avena fatua, post-emergence, 16 g ai/ha, postemergence, 0 is no effect, 100 is complete control, read-out: Plant response rating (0 to 100), Oat, Wild",5%
same,pest or weed control at 125 g/ha,"wild oat; Avena fatua, post-emergence, 125 g ai/ha, postemergence, visual rating, scale 0 to 100 (0 no effect, 100 complete control), read-out: Plant response rating, Oat, Wild",50%
same,pest or weed control at 62 g/ha,"wild oat; Avena fatua, post-emergence, Postemergence, 62 g ai/ha, scale 0 to 100 (0 no effect, 100 complete control), read-out: Plant response rating, Oat, Wild",35%
same,Velvetleaf plant response rating (0 to 100 scale),velvetleaf; 125 g ai/ha,100
same,pest or weed control at 500 g/ha,"velvetleaf; Abutilon theophrasti, pre-emergence, 240 h, 500 g ai/ha, 0 to 100 scale where 0 is no effect and 100 is complete control, read-out: Velvetleaf plant response rating",100%
same,pest or weed control at 16 g/ha,"large (Lg) crabgrass; 16 g ai/ha, preemergence, scale 0 to 100 (0 no effect, 100 complete control), read-out: Crabgrass, Large plant response rating",100%
same,pest or weed control at 62 g/ha,"large (Lg) crabgrass; 62 g ai/ha, preemergence, scale 0 (no effect) to 100 (complete control), read-out: Crabgrass, Large plant response rating",100%
same,pest or weed control at 125 g/ha,"large (Lg) crabgrass; 125 g ai/ha, preemergence, scale 0 (no effect) to 100 (complete control), read-out: Crabgrass, Large plant response rating",100%
same,pest or weed control at 31 g/ha,"large (Lg) crabgrass; Preemergence, 31 g ai/ha, scale 0 to 100, 0 no effect, 100 complete control, read-out: Plant response rating, Crabgrass, Large",100%
